One data set relates to SRB or APB populations. Put plainly: Micro efficacy of field-generated PFA at a salt water disposal well (serial dilution bug bottles). Format: cell-based. The conditions noted are these: for log reduction in microbial population: compared to incoming water, serial dilution bug bottles selecting for SRB or APB. How it is done: The peroxyformic acid generator according to the embodiments depicted in the figures having multiple inlets to provide formic acid blend (formic acid, catalyst and corrosion inhibitor) as well as hydrogen peroxide was evaluated under field conditions at a scale-up volume. The generator was used at a salt water disposal well.
The performance of the chemistry generated in the field according to Example 5 was evaluated for micro efficacy. PFA dosed at 250 ppm (˜25 ppm active) indicates at least reduction in microbial numbers equivalent to 2-3 logs, as shown in FIG. 13. In the figures the GB refers to site of treatment (gun barrel) measurement, whereas SWD refers to the disposal water measurement for micro efficacy.
The percentage reduction of microbial numbers compared to incoming water was also evaluated. Microbial numbers were monitored using traditional serial dilution bug bottles that select for SRB or APB populations.

The conditions of data set [1]: cited from earlier work; for half-life: shelf life stability, order of magnitude.

Consider performic acid [PFA], for which the “reduction in microbial numbers” value in the data set with SRB or APB populations (PFA dosed at 250 ppm (~25 ppm active), GB (gun barrel) and SWD (disposal water) measurements, FIG. 13) is reported as 2-3 logs. Besides, the “log reduction in microbial population” value in the data set with SRB or APB populations (all results) is 2-3 log; with SRB or APB populations (in some case) it was 7 log. In data set [1] (ambient temperature and pressure), the “time to decompose into carbon dioxide and water” value is on record as “within a few hours”. Moreover, the half-life entry in data set [1] was “minutes to hours”.

Turning to `CC(=O)OO` [peracetic acid, reference compound], in data set [1], the half-life result is on record as “weeks to months”.

Values taken from patent US12268210B2, “Performic acid on-site generator and formulator” (ECOLAB USA INC., priority 2015, dated 2025).
